Among the data in PubChem BioAssay (NCI) are TGI and GI50 values, retold here.

The term TGI denotes the concentration at which net growth stops. Lower therefore signals more potent growth arrest. Broadly, the GI50 is the concentration that inhibits growth by half.

Among the test systems are COLO 205 colon; HCT-15 colon; HT29 colon; OVCAR-8 ovarian; RPMI-8226 leukemia; SF-295 CNS; SK-MEL-5 melanoma; SK-OV-3 ovarian; SF-268 CNS; A498 renal.
What all share (test): DTP human tumour cell line panel, 48 h

Several values for one entry are separate records, joined by “and”; a condition that tells them apart may be missing. Equal values may be shown once.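 48-hour exposure; five concentrations; linearly interpolated endpoints. GI50: concentration for 50% inhibition of growth. The concentration for full growth arrest is given as TGI.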 *1 amine or outer side, *2 acyl side, *3 side chain or, on linkers, in order; H or OH if unused. Where a SMILES comes first, the peptide text is derived from it. Bridges are numbered along the chain shown (N, C = ends). [ ]: non-standard residue; d: D form. ξ: configuration not given here. X4 = CCC(C)C(N[*:1])C(O)CC(=O)O[C@H](C(=O)C(C)C(=O)[*:2])C(C)C; NMeY = CN[C@@H](Cc1ccc(O)cc1)C(=O)O; ξNMeL = CNC(CC(C)C)C(=O)O; ξT = CC(O)C(N)C(=O)O

As to `N#CCCN(CCCN(C(=O)Nc1ccccc1)c1ccccc1)C(=O)Nc1ccccc1`, the TGI with COLO 205 colon, in the assay on HCT-15 colon, with HT29 colon, with OVCAR-8 ovarian, in the assay on RPMI-8226 leukemia and with SF-295 CNS was over 100 µM each time. Besides, the TGI with SK-MEL-5 melanoma and in the assay with SK-OV-3 ovarian was over 100 µM each time.

For the molecule `C=C1C[C@]23C[C@@]1(O)CC[C@H]2[C@@]12C=C[C@H](O)[C@@](C)(C(=O)O1)[C@H]2[C@@H]3C(=O)O`, the TGI in the assay with COLO 205 colon, in the assay on HCT-15 colon, in the assay on HT29 colon, with RPMI-8226 leukemia, in the assay on SF-268 CNS and in the assay on SF-295 CNS was over 100 µM throughout. For the same molecule, the TGI with SK-MEL-5 melanoma and in the assay with SK-OV-3 ovarian was over 100 µM each time.

`NC(=O)CC(Nc1ncc2c(n1)-c1ccccc1OC2)C(=O)O` (stereo unspecified): the concentration for total growth inhibition (TGI) in the assay on COLO 205 colon was over 100 µM; with HCT-15 colon it was over 100 µM; in the assay on HT29 colon, over 100 µM; in the assay on OVCAR-8 ovarian, over 100 µM; with RPMI-8226 leukemia, 82.5 µM; in the assay with SF-268 CNS, over 100 µM. The TGI in the assay with SF-295 CNS, in the assay with SK-MEL-5 melanoma and with SK-OV-3 ovarian was over 100 µM throughout.

Turning to `CC(C)n1c(=O)n(-c2ccccc2)n(C(C)(C)C)c1=O`, the TGI in the assay with A498 renal, in the assay on COLO 205 colon, in the assay on HCT-15 colon, with HT29 colon, in the assay on OVCAR-8 ovarian and in the assay with SF-295 CNS was over 100 µM throughout. Also, the concentration for total growth inhibition (TGI) with SK-MEL-5 melanoma and with SK-OV-3 ovarian was over 100 µM in each case.

`NC(CCCCNC(=O)OCc1ccccc1)C(=O)NC(CCCCNC(=O)OCc1ccccc1)C(=O)ON1C(=O)CCC1=O` (stereo unspecified): the TGI with A498 renal, in the assay on COLO 205 colon, in the assay with HCT-15 colon, with HT29 colon, with OVCAR-8 ovarian and in the assay on RPMI-8226 leukemia was over 100 µM in each case. In the assay with SK-MEL-5 melanoma, this molecule registered a TGI of over 100 µM.

In the case of `CCOC(=O)c1cn(-c2ccc(Cl)cc2)c(=O)n2c1nc1ccccc12`, the concentration for total growth inhibition (TGI) in the assay on A498 renal, in the assay with COLO 205 colon, in the assay on HCT-15 colon, in the assay on HT29 colon, in the assay on OVCAR-8 ovarian and with RPMI-8226 leukemia was over 100 µM each time. In addition, the concentration for total growth inhibition (TGI) with SF-295 CNS and in the assay with SK-MEL-5 melanoma was over 100 µM each time.

Regarding `COS(=O)c1cc(Cl)cc(Cl)c1O` (stereo unspecified), the concentration for total growth inhibition (TGI) with A498 renal, in the assay on HT29 colon, with SF-268 CNS and in the assay with SK-OV-3 ovarian was over 100 µM in each case.

With `CSc1nncc(-c2cc3c(c(SC)n2)CCC3)n1`, the TGI with COLO 205 colon was over 100 µM; in the assay on HCT-15 colon, over 100 µM; in the assay on HT29 colon, over 100 µM; in the assay with OVCAR-8 ovarian it was 57.1 µM; with RPMI-8226 leukemia it was over 100 µM; in the assay with SF-268 CNS it was over 100 µM. Further, the total growth inhibition concentration (TGI) with SF-295 CNS, in the assay with SK-MEL-5 melanoma and in the assay on SK-OV-3 ovarian was over 100 µM each time.

Take `CCOC(=O)C(Cc1ccccc1)(Cc1ccc(O)cn1)NC(=O)c1ccccc1` (stereo unspecified): the TGI in the assay on COLO 205 colon is 68.4 µM; in the assay with HCT-15 colon, over 100 µM; in the assay with HT29 colon, 81 µM; in the assay with OVCAR-8 ovarian, over 100 µM; with RPMI-8226 leukemia, over 100 µM; in the assay with SF-268 CNS it was 61.7 µM. Besides, the total growth inhibition concentration (TGI) in the assay on SF-295 CNS is over 100 µM; in the assay on SK-MEL-5 melanoma it was 36.6 µM; in the assay with SK-OV-3 ovarian it was over 100 µM.

Turning to `COc1cccc(-c2nc3sccn3c2-c2ccnc(NCCNC(=O)Nc3cccc(C(F)(F)F)c3)n2)c1`, the GI50 in the assay with A498 renal was 2.44 µM; in the assay on COLO 205 colon, 5.37 µM; with HCT-15 colon, 3.05 µM; in the assay with HT29 colon, 3.33 µM; in the assay on OVCAR-8 ovarian it was 3.28 µM; with RPMI-8226 leukemia it was 1.92 µM. The GI50 in the assay with SF-268 CNS is 4.59 µM; with SF-295 CNS, 2.8 µM; with SK-MEL-5 melanoma, 4.27 µM. The TGI with A498 renal amounted to 17.5 µM; in the assay on COLO 205 colon, 19.2 µM; in the assay on HCT-15 colon, 16.4 µM; in the assay with HT29 colon, 14 µM; with OVCAR-8 ovarian, 9.79 µM; with RPMI-8226 leukemia, 5.11 µM. Moreover, the TGI in the assay on SF-268 CNS is 43.4 µM; with SF-295 CNS, 14.9 µM; with SK-MEL-5 melanoma, 15.9 µM.

Take `CCOC(=O)C(C(=O)Cc1ccccc1)c1ccccc1` (stereo unspecified): the TGI in the assay with COLO 205 colon, in the assay with HCT-15 colon, with HT29 colon, in the assay with OVCAR-8 ovarian, in the assay with RPMI-8226 leukemia and in the assay on SF-268 CNS was over 100 µM in each case. The TGI with SF-295 CNS, in the assay with SK-MEL-5 melanoma and in the assay on SK-OV-3 ovarian was over 100 µM throughout.

As to `O=C1NC(N/N=C\c2ccccc2)=N/C1=C/c1ccc(Cl)cc1`, the total growth inhibition concentration (TGI) in the assay with COLO 205 colon is over 100 µM; in the assay on HCT-15 colon, 62.7 µM; with HT29 colon it was over 100 µM; in the assay with OVCAR-8 ovarian, 49.6 µM; in the assay on RPMI-8226 leukemia it was 59.7 µM; in the assay with SF-268 CNS it was 94.7 µM. Also, the values for the total growth inhibition concentration (TGI) with SF-295 CNS, in the assay with SK-MEL-5 melanoma and with SK-OV-3 ovarian were 78.8 µM, 43.9 µM and 43.4 µM, respectively.

As to `COC(=O)c1cncc2c1CC1C3(C(=O)OC)C=NC(C4C(CO)=CCC43)C21C` (stereo unspecified), the total growth inhibition concentration (TGI) with A498 renal, in the assay with COLO 205 colon, in the assay with HCT-15 colon, in the assay with HT29 colon, with OVCAR-8 ovarian and in the assay on SF-268 CNS was over 100 µM throughout. Also, the TGI in the assay on SF-295 CNS and with SK-MEL-5 melanoma was over 100 µM in each case.

For the molecule `O=C(O)c1ccc(Nc2nc3cc(C(F)(F)F)ccc3nc2C(=O)O)cc1`, the TGI in the assay on A498 renal, with COLO 205 colon, in the assay on HCT-15 colon, in the assay with HT29 colon, with OVCAR-8 ovarian and in the assay with SF-268 CNS was over 100 µM throughout. The TGI in the assay on SF-295 CNS and in the assay on SK-MEL-5 melanoma was over 100 µM throughout.

Turning to `O=C(N=Nc1ccccc1Br)NNc1ccccc1Br`, the total growth inhibition concentration (TGI) with A498 renal, in the assay on HCT-15 colon, in the assay with HT29 colon, with OVCAR-8 ovarian, with RPMI-8226 leukemia and with SF-268 CNS was over 100 µM each time. In addition, in the assay with SK-MEL-5 melanoma, the concentration for total growth inhibition (TGI) is over 100 µM.

For `O=C(NCCO)c1ccc(Cl)cc1`, the TGI in the assay on A498 renal, in the assay with HCT-15 colon, in the assay on HT29 colon, with OVCAR-8 ovarian, in the assay on SF-268 CNS and in the assay on SF-295 CNS was over 100 µM in each case. The same molecule registered a total growth inhibition concentration (TGI) in the assay with SK-MEL-5 melanoma of over 100 µM.

As for `CCC(C)C1NC(=O)C(NC(=O)C(CC(C)C)N(C)C(=O)[C@@H]2CCCN2)C(C)OC(=O)[C@H](Cc2ccc(OC)cc2)N(C)C(=O)[C@@H]2CCCN2C(=O)[C@H](CC(C)C)NC(=O)C(C)C(=O)[C@H](C(C)C)OC(=O)CC1O` (stereo partly specified) (H-P[ξNMeL][ξT][X4]LP[NMeY](Me); ester 3-C), the TGI with A498 renal is 0.0372 µM and 0.15 µM; in the assay with HCT-15 colon it was 0.224 µM and 0.146 µM; in the assay on HT29 colon, 0.0151 µM and 0.0127 µM; with OVCAR-8 ovarian it was 0.0243 µM and 0.0387 µM; with SF-268 CNS, 0.00314 µM and 0.0195 µM; with SF-295 CNS, 0.0149 µM. Also, the total growth inhibition concentration (TGI) in the assay with SK-MEL-5 melanoma came to 0.00748 µM; in the assay on SK-OV-3 ovarian, 0.0177 µM.

With `Nc1nc2c(ncn2C2C=CC(CO)O2)c(=O)[nH]1` (stereo unspecified), the concentration for total growth inhibition (TGI) in the assay on A498 renal, in the assay with COLO 205 colon, in the assay on HCT-15 colon, in the assay on HT29 colon, in the assay on OVCAR-8 ovarian and in the assay with RPMI-8226 leukemia was over 100 µM throughout. Also, the TGI with SF-295 CNS and in the assay with SK-MEL-5 melanoma was over 100 µM each time.

As for `COC(=O)C(COC(=O)/C=C/c1ccc(OC(C)=O)c(OC(C)=O)c1)OC(=O)/C=C/c1ccc(OC(C)=O)c(OC(C)=O)c1` (stereo unspecified), the TGI is 43.1 µM with A498 renal; 30 µM with COLO 205 colon; over 100 µM with HCT-15 colon; 19.7 µM in the assay on HT29 colon; 26.4 µM with OVCAR-8 ovarian; 66.4 µM in the assay on RPMI-8226 leukemia. Further, the values for the TGI in the assay with SF-268 CNS, in the assay on SF-295 CNS and with SK-MEL-5 melanoma were 64.2 µM, 33.2 µM and 28.3 µM, respectively.

Turning to `COc1c/c(=C2/C=c3ccccc3=N2)[nH]/c1=C/c1[nH]c(C)cc1C`, the 50% growth inhibitory concentration (GI50) in the assay on A498 renal is 0.267 µM; in the assay on COLO 205 colon, 0.0659 µM; in the assay with HCT-15 colon, 0.0363 µM; in the assay with OVCAR-8 ovarian, 0.0448 µM; in the assay with RPMI-8226 leukemia, 0.0533 µM; in the assay with SF-268 CNS, 0.0309 µM. Besides, the GI50 with SF-295 CNS is 0.149 µM; in the assay on SK-MEL-5 melanoma it was 0.0304 µM. Besides, the TGI in the assay on A498 renal is 4.31 µM; in the assay on COLO 205 colon, 1.26 µM; with HCT-15 colon, over 100 µM; in the assay with OVCAR-8 ovarian, over 100 µM; in the assay with RPMI-8226 leukemia, 1.95 µM; in the assay with SF-268 CNS, over 100 µM. The concentration for total growth inhibition (TGI) was found to be 0.628 µM in the assay with SF-295 CNS and 0.0835 µM in the assay on SK-MEL-5 melanoma.

Turning to `Cc1ccc(O)c(C2=NNC(c3cccc(Br)c3)C2)c1` (stereo unspecified), the total growth inhibition concentration (TGI) in the assay with COLO 205 colon was over 100 µM; in the assay on HCT-15 colon it was 35.1 µM; in the assay with HT29 colon, over 100 µM; in the assay with OVCAR-8 ovarian, over 100 µM; with RPMI-8226 leukemia, over 100 µM; in the assay on SF-268 CNS it was over 100 µM. Further, the TGI in the assay with SF-295 CNS, in the assay on SK-MEL-5 melanoma and with SK-OV-3 ovarian was over 100 µM throughout.
